Laboratory results as given in patent publication US10744072B2, “Cosmetic composition for oral administration for reinforcing the skin barrier” (NUTRICOS Technologies, priority 2015, dated 2020).

Tests used:
Format in all cases: cell-based
SPRR2D = experiment: Gene expression (RNAm) of SPRR2D in human keratinocytes NHEK per RT-qPCR; settings: each compound at 10 μg/ml, 18 hours incubation, standardized to RPS28 and GAPDH
Description: (§1) The effect of the lycopene and manganese was studied separately then in combination on the gene expression profile (RNAm) of human keratinocytes NHEK (normal human epidermal keratinocytes) per RT-qPCR.
(§2) A 24-well plate was seeded with keratinocytes then placed into culture for 24 hours. The culture medium was then replaced with the test medium comprising according to the cases 0 (negative control), one or two tested compounds. The cells were incubated in this test medium for 18 hours then washed and frozen at −80° C. Each condition was carried out in triplicate. Two samples of each triplicate were grouped together, then the RNAm was extracted therefrom using TriPure Isolation Reagent® according to the supplier's recommendations. The ADNc was synthesized via reverse transcription of total RNA by “Transcriptor Reverse Transcriptase” from Roche. Then a quantitative PCR was performed in the presence of a fluorophore. The incorporation of fluorophore in the amplified DNA was measured during the PCR cycles. Two genes were used as a reference (RPS28 ad GADPH), in order to standardize the results. As such the level of expression of the studied genes was compared to the average level of expression of these two reference genes for all of the conditions tested.
(§3) For this test, the source of lycopene is Lyc-o-Mato marketed by Lycored and the source manganese is manganese sulfate.

GAPDH = experiment: Gene expression of reference gene GAPDH in human keratinocytes NHEK per RT-qPCR; settings: each compound at 10 μg/ml, 18 hours incubation
Description: as §1, §2, §3

RPS28 = experiment: Gene expression of reference gene RPS28 in human keratinocytes NHEK per RT-qPCR; settings: each compound at 10 μg/ml, 18 hours incubation
Description: as §1, §2, §3

manganese sulfate
SPRR2D expression expressed as a percentage in relation to the conditions without added compound (SPRR2D): 106%
Control (GAPDH) expression expressed as a percentage in relation to the conditions without added compound (GAPDH): 96%
Control (RPS28) expression expressed as a percentage in relation to the conditions without added compound (RPS28): 117%
